Data published in ChEMBL document CHEMBL1201862, “PubChem BioAssay data set” (2004).
Calls of active or inactive are those of the source.

Legend:
Hexokinase-1 = target: T1, Hexokinase-1 (Homo sapiens, UniProt P19367); experiment: SAR analysis of small molecule inhibitors of hexokinase domain containing I (HKDC1) in the hexokinase 1 selectivity assay. [Related pubchem assays (depositor defined):AID493160, AID493190]; format: functional
T1 sequence (P19367 whole entry): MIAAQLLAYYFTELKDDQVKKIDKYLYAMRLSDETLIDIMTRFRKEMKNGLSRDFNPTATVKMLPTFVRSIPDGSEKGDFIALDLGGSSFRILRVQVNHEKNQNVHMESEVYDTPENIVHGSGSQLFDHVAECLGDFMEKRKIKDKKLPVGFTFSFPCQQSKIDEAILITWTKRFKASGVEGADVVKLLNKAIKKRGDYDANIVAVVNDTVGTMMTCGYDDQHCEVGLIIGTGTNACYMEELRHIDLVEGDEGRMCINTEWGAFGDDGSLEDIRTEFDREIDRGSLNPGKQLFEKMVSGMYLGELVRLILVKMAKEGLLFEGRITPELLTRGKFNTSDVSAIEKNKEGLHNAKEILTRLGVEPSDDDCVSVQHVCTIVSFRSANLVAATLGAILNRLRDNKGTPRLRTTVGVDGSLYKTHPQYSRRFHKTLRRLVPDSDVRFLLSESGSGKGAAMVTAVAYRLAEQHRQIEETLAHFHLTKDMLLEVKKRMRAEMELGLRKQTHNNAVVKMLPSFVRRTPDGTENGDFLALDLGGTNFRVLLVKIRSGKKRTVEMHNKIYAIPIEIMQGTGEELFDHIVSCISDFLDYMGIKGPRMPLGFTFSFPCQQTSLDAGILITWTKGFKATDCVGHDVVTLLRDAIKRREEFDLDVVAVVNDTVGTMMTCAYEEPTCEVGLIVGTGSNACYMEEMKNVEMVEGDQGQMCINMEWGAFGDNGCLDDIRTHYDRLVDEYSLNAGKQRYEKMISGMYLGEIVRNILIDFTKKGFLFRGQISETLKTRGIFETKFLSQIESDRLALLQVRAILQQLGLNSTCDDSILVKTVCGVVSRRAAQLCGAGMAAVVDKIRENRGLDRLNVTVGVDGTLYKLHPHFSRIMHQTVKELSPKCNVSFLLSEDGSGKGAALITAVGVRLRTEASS

Hexokinase HKDC1 = target: T2, Hexokinase HKDC1 (Homo sapiens, UniProt Q2TB90); experiment: SAR analysis of small molecule inhibitors of hexokinase domain containing I (HKDC1). [Related pubchem assays (depositor defined):AID493160, AID493190]; format: functional
T2 sequence (Q2TB90 whole entry): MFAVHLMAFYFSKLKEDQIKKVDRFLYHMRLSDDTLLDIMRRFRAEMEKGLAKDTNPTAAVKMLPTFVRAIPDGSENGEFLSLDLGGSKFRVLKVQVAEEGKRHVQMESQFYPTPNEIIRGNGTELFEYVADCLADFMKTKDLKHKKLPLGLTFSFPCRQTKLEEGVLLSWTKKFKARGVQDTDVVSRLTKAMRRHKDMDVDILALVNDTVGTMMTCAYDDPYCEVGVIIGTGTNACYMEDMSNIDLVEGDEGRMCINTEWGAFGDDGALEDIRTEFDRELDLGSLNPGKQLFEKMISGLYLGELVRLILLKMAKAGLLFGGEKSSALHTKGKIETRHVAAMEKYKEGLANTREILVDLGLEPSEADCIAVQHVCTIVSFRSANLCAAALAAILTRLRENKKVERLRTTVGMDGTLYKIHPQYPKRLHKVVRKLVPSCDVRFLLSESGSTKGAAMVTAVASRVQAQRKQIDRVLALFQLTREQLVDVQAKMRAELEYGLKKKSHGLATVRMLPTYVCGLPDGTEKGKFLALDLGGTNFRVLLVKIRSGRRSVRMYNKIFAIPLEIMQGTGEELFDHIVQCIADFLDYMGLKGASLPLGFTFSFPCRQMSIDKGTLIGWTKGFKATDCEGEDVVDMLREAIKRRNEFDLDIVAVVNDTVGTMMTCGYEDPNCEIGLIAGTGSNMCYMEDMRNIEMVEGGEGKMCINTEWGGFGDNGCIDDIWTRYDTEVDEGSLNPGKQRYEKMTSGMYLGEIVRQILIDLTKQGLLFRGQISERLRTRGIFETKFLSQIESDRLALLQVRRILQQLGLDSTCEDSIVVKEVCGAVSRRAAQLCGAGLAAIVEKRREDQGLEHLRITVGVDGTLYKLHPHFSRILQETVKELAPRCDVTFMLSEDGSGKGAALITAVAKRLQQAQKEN

CHO = experiment: cytotoxicity in TLR9-MyD88 CHO cells, dose response, cytotoxicity control for TLR9-MyD88 binding inhibitor project, cell-based, luminescence (AID 588339); format: functional, hamster; conditions: Cricetulus griseus;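 note: CHO cells stably coexpressing TLR9 and MyD88 fusions from primary screen; compound exposure lasted 48 hours before viability readout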
Beta Lactamase = Beta Lactamase (Pseudomonas aeruginosa, UniProt Q932Y6); experiment: beta-lactamase reporter inhibitor potency, dose response, artefact control for TLR9-MyD88 binding inhibitor project, BLA reporter cells, FRET fluorescence (AID 588341); format: cell-based;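 note: cell based assay in CHO-K1 cells stably expressing beta-lactamase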
Chain of Beta Lactamase (Q932Y6 whole entry): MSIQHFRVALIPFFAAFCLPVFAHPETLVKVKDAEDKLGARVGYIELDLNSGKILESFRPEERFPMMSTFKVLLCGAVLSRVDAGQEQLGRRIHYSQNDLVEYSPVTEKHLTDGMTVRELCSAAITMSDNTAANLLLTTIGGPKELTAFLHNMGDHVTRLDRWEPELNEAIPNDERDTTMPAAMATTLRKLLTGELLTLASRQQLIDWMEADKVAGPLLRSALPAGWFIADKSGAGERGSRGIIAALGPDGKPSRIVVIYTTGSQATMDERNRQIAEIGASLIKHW

[1] = THP-1 cell cytotoxicity, dose response, cytotoxicity control for Vif-APOBEC3G degradation inhibitor project, THP-1 cells (AID 1117359); format: functional; conditions: Human immunodeficiency virus 1, THP-1
[2] = inhibitors of cytokine-induced nitrite release, dose response, cell-based, Griess absorbance, INS-1E, dry powder, set 3 (AID 488870); format: functional; conditions: Rattus norvegicus
INS1 = experiment: inhibitors of cytokine-induced nitrite release, dose response, cell-based, Griess absorbance, INS-1E, dry powder, set 2 (AID 488868); format: functional; conditions: Rattus norvegicus
[3] = target: T3, Short transient receptor potential channel 4 (Mus musculus, UniProt Q9QUQ5); experiment: SAR Analysis for the identification of selective inhibits of the transient receptor potential cation channel C4 (TRPC4): Automated Electrophysiology_2. [Related pubchem assays (depositor defined):AID2256]; format: functional
T3 sequence (Q9QUQ5 whole entry): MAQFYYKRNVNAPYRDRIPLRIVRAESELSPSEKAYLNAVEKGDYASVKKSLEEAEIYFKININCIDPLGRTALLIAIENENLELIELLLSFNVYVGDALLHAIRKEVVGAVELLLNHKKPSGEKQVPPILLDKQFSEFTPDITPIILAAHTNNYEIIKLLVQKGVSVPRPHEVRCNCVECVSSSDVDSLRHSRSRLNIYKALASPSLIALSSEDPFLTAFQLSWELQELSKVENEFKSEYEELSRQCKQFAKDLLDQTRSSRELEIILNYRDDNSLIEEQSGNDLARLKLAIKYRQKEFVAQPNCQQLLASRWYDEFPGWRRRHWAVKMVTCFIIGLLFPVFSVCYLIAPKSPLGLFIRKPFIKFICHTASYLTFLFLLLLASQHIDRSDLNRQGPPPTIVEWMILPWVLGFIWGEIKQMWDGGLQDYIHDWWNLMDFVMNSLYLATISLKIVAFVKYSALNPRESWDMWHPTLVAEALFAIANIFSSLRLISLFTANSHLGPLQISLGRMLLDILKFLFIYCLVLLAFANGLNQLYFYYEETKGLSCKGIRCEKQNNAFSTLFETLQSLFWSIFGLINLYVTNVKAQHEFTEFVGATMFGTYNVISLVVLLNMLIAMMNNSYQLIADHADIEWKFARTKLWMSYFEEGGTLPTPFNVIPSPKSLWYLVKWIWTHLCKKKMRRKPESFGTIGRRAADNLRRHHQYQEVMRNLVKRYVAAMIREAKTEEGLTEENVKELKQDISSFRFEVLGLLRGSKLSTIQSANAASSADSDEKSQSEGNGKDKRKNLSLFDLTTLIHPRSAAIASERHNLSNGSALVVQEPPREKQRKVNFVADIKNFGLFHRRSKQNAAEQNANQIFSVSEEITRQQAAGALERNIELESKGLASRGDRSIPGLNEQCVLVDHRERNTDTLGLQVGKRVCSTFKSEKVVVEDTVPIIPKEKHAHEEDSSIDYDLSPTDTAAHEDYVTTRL

[4] = target: Short transient receptor potential channel 6 (Mus musculus, UniProt Q61143); experiment: TRPC6 inhibition potency of TRPC4 inhibitor analogs, dose response, selectivity assay for selective TRPC4 inhibitor project, HEK293 cells, membrane potential dye, IC50 (AID 492987); format: functional, cell-based
Chain of Short transient receptor potential channel 6 (Q61143 whole entry): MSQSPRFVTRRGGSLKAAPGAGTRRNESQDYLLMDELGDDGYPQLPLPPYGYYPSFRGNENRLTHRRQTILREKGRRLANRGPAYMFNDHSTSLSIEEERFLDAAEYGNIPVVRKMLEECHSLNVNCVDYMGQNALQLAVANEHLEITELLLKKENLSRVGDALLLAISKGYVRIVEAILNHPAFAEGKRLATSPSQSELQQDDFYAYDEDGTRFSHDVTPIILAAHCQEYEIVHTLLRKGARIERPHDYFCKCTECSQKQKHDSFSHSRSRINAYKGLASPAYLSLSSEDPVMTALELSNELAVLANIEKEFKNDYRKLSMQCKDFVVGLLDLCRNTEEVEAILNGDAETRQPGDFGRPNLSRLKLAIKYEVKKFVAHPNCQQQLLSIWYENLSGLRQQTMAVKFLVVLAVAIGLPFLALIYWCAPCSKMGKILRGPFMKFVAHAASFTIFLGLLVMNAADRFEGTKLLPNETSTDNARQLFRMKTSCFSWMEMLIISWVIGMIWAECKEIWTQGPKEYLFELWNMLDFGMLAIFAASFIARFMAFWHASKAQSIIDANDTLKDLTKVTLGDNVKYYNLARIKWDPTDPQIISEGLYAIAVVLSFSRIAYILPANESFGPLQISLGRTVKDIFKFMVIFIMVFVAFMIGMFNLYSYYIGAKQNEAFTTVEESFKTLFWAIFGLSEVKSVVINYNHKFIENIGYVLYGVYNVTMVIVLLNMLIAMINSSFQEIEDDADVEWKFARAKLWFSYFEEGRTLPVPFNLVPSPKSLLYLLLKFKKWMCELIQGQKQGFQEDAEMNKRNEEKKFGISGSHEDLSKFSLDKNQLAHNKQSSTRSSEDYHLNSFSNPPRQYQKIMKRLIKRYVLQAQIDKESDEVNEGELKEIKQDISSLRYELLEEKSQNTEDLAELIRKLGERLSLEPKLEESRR

[5] = target: T3, Short transient receptor potential channel 4; experiment: TRPC4 inhibitor concentration-response, dose response, cell-based, HEK293 TRPC4/mu-opioid, DAMGO stimulus, Fluo-4 (AID 492994); format: functional
[6] = target: T4, Voltage-gated N-type calcium channel alpha-1B subunit/Amyloid beta A4 precursor protein-binding family A member 1 (Homo sapiens, UniProt Q00975+Q02410); format: protein assay
T4 sequence (Q00975 whole entry): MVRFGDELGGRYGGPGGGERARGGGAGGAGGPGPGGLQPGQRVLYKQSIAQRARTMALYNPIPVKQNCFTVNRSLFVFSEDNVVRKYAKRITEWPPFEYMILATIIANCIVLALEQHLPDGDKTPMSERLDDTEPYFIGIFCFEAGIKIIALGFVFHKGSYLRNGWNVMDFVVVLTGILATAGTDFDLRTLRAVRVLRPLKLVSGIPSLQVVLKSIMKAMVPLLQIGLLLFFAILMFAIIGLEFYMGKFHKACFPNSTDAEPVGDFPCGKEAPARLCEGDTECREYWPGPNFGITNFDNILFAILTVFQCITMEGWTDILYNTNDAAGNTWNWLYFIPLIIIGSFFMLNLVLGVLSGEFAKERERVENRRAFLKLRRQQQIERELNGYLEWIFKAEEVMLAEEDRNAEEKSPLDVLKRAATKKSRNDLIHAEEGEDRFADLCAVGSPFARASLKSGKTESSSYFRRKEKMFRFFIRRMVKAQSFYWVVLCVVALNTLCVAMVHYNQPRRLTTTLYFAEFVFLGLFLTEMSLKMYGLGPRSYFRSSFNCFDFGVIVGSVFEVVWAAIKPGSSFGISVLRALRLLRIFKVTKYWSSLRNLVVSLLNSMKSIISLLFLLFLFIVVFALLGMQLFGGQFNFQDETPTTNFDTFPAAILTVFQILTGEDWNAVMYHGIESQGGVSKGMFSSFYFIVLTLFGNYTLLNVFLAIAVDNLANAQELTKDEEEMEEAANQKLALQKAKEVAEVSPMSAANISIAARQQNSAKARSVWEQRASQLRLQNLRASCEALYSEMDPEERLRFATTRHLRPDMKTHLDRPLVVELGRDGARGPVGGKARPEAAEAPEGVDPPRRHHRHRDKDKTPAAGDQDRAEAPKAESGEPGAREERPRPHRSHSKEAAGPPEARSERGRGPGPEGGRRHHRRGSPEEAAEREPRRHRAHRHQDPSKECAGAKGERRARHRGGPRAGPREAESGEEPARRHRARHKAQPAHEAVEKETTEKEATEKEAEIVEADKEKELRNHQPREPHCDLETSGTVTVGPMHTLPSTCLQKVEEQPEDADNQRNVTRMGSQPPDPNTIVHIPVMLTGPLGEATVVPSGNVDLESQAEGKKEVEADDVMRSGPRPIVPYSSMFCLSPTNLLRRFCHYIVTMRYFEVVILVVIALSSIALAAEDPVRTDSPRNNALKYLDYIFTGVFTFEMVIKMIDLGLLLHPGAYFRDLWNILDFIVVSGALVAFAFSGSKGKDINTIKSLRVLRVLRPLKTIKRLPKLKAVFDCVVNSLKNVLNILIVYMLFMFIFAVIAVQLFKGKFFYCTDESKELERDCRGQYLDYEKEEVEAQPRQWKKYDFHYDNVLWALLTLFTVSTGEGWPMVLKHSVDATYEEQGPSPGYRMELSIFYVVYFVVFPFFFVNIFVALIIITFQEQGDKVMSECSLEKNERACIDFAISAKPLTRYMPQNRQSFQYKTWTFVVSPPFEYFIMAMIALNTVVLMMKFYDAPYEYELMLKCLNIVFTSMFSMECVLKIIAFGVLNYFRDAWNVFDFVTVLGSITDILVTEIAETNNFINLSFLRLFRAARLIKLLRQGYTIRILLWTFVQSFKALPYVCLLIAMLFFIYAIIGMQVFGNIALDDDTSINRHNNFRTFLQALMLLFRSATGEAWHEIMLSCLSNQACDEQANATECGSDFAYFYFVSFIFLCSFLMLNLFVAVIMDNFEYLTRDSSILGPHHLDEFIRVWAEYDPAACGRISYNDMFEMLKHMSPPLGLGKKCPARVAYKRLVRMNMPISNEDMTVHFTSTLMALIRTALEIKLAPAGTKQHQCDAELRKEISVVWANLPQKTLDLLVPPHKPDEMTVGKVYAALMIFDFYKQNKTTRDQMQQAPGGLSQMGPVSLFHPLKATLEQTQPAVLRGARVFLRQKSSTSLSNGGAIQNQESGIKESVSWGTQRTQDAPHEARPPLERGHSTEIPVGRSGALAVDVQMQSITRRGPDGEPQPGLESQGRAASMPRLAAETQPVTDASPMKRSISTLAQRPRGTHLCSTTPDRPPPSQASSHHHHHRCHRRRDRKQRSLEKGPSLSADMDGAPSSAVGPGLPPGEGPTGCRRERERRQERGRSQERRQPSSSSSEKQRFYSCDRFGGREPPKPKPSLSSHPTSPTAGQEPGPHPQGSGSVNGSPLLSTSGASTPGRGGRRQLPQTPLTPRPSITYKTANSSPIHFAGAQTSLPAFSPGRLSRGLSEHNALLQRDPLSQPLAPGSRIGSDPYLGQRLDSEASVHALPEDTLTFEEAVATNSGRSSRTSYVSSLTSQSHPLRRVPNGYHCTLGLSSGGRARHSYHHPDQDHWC
T4 sequence (Q02410 whole entry): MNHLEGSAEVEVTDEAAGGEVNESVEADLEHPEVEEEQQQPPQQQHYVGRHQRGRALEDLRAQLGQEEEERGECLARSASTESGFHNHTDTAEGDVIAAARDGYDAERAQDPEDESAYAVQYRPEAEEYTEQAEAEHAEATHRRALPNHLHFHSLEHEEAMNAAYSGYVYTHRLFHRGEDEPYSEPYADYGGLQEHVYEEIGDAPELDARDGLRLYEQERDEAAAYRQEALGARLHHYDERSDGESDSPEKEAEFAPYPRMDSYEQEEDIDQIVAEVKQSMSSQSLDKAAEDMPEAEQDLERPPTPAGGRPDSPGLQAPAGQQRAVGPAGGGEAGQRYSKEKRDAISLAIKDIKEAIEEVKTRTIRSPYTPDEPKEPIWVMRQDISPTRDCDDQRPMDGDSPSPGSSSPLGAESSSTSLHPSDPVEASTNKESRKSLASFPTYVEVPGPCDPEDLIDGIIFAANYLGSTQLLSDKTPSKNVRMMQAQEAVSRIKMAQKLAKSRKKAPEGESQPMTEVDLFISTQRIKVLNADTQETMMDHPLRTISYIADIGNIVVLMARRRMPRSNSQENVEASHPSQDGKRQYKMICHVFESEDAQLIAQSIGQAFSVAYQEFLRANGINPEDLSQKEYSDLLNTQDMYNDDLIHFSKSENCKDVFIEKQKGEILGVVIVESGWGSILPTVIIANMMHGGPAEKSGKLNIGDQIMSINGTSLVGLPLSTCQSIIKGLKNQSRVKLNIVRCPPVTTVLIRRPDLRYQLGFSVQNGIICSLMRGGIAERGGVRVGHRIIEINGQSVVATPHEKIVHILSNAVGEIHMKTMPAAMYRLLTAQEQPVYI

[7] = target: T4, Voltage-gated N-type calcium channel alpha-1B subunit/Amyloid beta A4 precursor protein-binding family A member 1; format: protein assay; remark: listed apart in the source
[8] = target: Induced myeloid leukemia cell differentiation protein Mcl-1 (Homo sapiens, UniProt Q07820); format: functional
Chain of Induced myeloid leukemia cell differentiation protein Mcl-1 (Q07820 whole entry): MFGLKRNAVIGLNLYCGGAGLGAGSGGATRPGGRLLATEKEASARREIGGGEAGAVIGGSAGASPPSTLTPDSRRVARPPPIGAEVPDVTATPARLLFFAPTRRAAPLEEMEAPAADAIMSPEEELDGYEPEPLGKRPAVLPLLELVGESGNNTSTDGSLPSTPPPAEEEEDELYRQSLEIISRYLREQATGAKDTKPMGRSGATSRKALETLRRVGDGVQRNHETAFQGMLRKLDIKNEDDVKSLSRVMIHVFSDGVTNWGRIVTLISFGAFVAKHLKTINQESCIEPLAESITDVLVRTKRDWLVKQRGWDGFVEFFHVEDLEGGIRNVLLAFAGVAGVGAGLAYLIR

With `Cc1cc(C)c(S(=O)(=O)Nc2cc(SCCC(=O)O)c(O)c3ccccc23)cc1C` the IC50 (Hexokinase-1) was > 80 µM (inactive) and the IC50 (Hexokinase HKDC1) was 9.9 µM (active).

In the case of `CC[C@H](C)/C=C(C)/C=C/C1=CC2=CC(=O)[C@]3(C)OC(=O)[C@@H](C(C)=O)[C@@H]3C2=CO1`, the IC50 (CHO) is reported as > 49.7 µM (inactive), the IC50 (Beta Lactamase) is reported as 8.86 µM (active) and the CC50 [1] is reported as > 40 µM (active).

For `COc1ccccc1S(=O)(=O)N(C)C[C@@H]1Oc2c(NC(=O)Nc3cccc4ccccc34)cccc2C(=O)N([C@@H](C)CO)C[C@H]1C`, the AC50 [2] was 45.1 µM (active) and the AC50 (INS1) was 47.2 µM (active).

In the case of `Cc1ccc2nc(N3CCCCCC3)cc(C)c2c1`, the IC50 [3] is reported as 0.9 µM (active), the IC50 [4] is reported as 12.8 µM (active) and the IC50 [5] is reported as 1.3 µM (active).

In the case of `Cc1cc2nc(/C=C/c3nc4cc(C)c(C)cc4[nH]3)[nH]c2cc1C`, the IC50 [6] is reported as 18.5 µM (active), the IC50 [7] is reported as > 50 µM (inactive) and the IC50 [8] is reported as 3.67 µM (active). The IC50 (CHO) was > 49.7 µM (inactive) and the IC50 (Beta Lactamase) was 20.9 µM (inactive).
